From patent publication US20140315886A1, “QUINAZOLINES AS THERAPEUTIC COMPOUNDS AND RELATED METHODS OF USE” (OTSUKA PHARMACEUTICAL CO., LTD., priority 2011, published 2014) come the findings set out here.

The test addresses T1, purified STEP46 enzyme (Homo sapiens, UniProt P54829).
T1 sequence (P54829 197-565 limits assumed): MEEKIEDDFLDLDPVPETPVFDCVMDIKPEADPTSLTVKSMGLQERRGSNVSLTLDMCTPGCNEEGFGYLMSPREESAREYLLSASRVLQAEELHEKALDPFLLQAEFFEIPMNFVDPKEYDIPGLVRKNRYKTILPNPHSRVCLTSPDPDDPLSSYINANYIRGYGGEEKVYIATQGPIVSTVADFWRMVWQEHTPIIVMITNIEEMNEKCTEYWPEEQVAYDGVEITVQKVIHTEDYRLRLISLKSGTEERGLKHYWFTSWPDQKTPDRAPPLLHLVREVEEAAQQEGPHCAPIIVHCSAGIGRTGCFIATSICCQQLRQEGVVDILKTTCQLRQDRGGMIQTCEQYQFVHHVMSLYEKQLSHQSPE
Nature of the test: STEP46 biochemical assay (DiFMUP fluorescence phosphatase assay). The settings on record: DiFMUP 10 μM, read-out: STEP IC50. The method, then:
Serial dilutions of compounds were performed in 100% DMSO and 1 uL of compounds were dispensed into 384-well black polystyrene plates (Corning, N.Y.). Compounds were incubated with 24 uL of buffer containing 50 mM Hepes, 1 mM DTT, 0.02% Brij35, 1 ng/well purified STEP46 enzyme for […] at room temperature. The reaction was initiated by addition of 25 uL of DiFMUP (6,8-difluoro-4-methylumbelliferyl phosphate) (InVitrogen, CA) with a final concentration of 10 μM and incubated at 27° C. for 90 mM Final DMSO concentration is 2%. Plates were read with florescence intensity at excitation/emission of 360/460 nm using a PheraStar plate reader (BMG Labtech, NC).
Data were expressed as percentage (%) inhibition of enzyme activity. 0% inhibition is defined as the RFUs (relative fluorescence units) in the absence of compounds and 100% inhibition is defined as RFUs in the absence of STEP46 enzyme. IC50 values of compounds with inhibitory activity against STEP46 were determined by GraphPad Prism (version 4.03) using four parameter logistic equation. Some compounds act as activators. For compounds showing STEP46 enzymatic activation, data are represented as percentage of inhibition but with negative values at three representative concentrations (25, 50 and 100 uM).

The term IC50 denotes the concentration at which inhibition is half-maximal.

Consider `CCOc1ccc2nc(-c3cccnc3)nc(N3CCc4ccc(Cl)cc43)c2c1` [Compound 5], for which the IC50 lay in the range of 1000 to 10000 nM.
On to `Fc1ccc(F)c(-c2ccc3nc(-c4cccnc4)nc(NCCc4ccccn4)c3c2)c1` [Compound 339], for which the half-maximal inhibitory concentration (IC50) lay within 1000 to 10000 nM.
Turning to `CNc1nc(-c2cccnc2)nc2c(C)c(-c3ccccc3C)ccc12` [Compound 297], the half-inhibitory concentration (IC50) is above 10000 nM.
The result for `Clc1cncc(Nc2nc(-c3cccnc3)nc3ccc(Cl)cc23)c1` [Compound 70] reads below 1000 nM; that for `CNc1nc(-c2cccnc2)nc2cc(-c3cccc(F)c3)c(F)cc12` [Compound 550], 1000 to 10000 nM; that for `CNc1nc(-c2cnccn2)nc2cc(-c3ccc(F)c(F)c3)ccc12` [Compound 397], 1000 to 10000 nM.
For `CNc1nc(-c2cccnc2)nc2cc(-c3cc(F)cc(OCCOC)c3)ccc12` [Compound 144], the IC50 fell in the range of 1000 to 10000 nM.
The result for `CNc1nc(-c2cccnc2)nc2cc(-c3cc(OC)ccc3F)ccc12` [Compound 219] reads 1000 to 10000 nM; that for `CNc1nc(-c2cccnc2)nc2ccc(-c3cccc4oc(=O)[nH]c34)cc12` [Compound 476], below 1000 nM.
On to `CNc1nc(-c2cccnc2)nc2c(OC)cc(-c3cc(F)cc(F)c3)cc12` [Compound 204], for which the half-inhibitory concentration (IC50) lay within 1000 to 10000 nM.
The result for `CNc1nc(-c2cccnc2)nc2cc(-c3cc(F)nc(F)c3)ccc12` [Compound 284] reads below 1000 nM; that for `Fc1ccc(-c2ccc3nc(-c4cccnc4)nc(N4CCc5cc(Cl)ccc54)c3c2)c(F)c1` [Compound 72], 1000 to 10000 nM; that for `CCOc1ccc2nc(-c3cccnc3)nc(Nc3cc(C)c(F)cn3)c2c1` [Compound 67], 1000 to 10000 nM.
For `CCOc1cc(F)cc(-c2ccc3c(NC)nc(-c4cccnc4)nc3c2)c1` [Compound 145], the half-inhibitory concentration (IC50) was in the range of 1000 to 10000 nM.
For the molecule `CNc1nc(-c2cccnc2)nc2c(F)c(-c3cccs3)ccc12` [Compound 533], the half-maximal inhibitory concentration (IC50) was in the range of 1000 to 10000 nM.
Regarding `CNc1nc(-c2cccnc2)nc2cc(F)c(-c3ccc(F)cc3F)cc12` [Compound 196], the half-inhibitory concentration (IC50) is below 1000 nM.
The result for `CNc1nc(-c2cccnc2)nc2ccc(-c3cccc(C)c3Cl)cc12` [Compound 268] reads above 10000 nM; that for `CNc1nc(-c2cccnc2)nc2cc(F)c(-c3cccc(F)c3F)cc12` [Compound 594], 1000 to 10000 nM; that for `Fc1cncc(Nc2nc(-c3cccnc3)nc3cc(Cl)ccc23)c1` [Compound 50], 1000 to 10000 nM.
`CNc1nc(-c2cccnc2)nc2cc(-c3cc(F)cc(OC)c3)ccc12` [Compound 279]: the IC50 was below 1000 nM.
Consider `Cc1ccc2c(c1)N(c1nc(-c3cccnc3)nc3ccc(-c4cccc(F)c4F)cc13)CC2` [Compound 446], for which the IC50 lay within 1000 to 10000 nM.
`CNc1nc(-c2cccnc2)nc2cc(-c3cc(F)ccc3OC)ccc12` [Compound 316]: the half-inhibitory concentration (IC50) fell in the range of 1000 to 10000 nM.
The result for `CNc1nc(-c2cccnc2)nc2cc(-c3ccc(F)c(F)c3)c(F)cc12` [Compound 558] reads 1000 to 10000 nM.
`CNc1nc(-c2cccnc2)nc2c(F)c(-c3ccc(C)cc3)ccc12` [Compound 526]: the IC50 lay in the range of 1000 to 10000 nM.
On to `COc1ccc2nc(-c3cccnc3)nc(Nc3ccc4nc(C)oc4c3)c2c1` [Compound 39], for which the half-inhibitory concentration (IC50) was in the range of 1000 to 10000 nM.
The result for `CNc1nc(-c2cccnc2)nc2cc(-c3ccc(OC)cc3F)ccc12` [Compound 218] reads 1000 to 10000 nM.
Turning to `CNC(=O)COc1cc(F)cc(-c2ccc3c(NC)nc(-c4cccnc4)nc3c2)c1` [Compound 142], the concentration for half-maximal inhibition (IC50) lay in the range of 1000 to 10000 nM.
Regarding `Clc1ccc2c(N3CCc4cccnc43)nc(-c3cccnc3)nc2c1` [Compound 62], the concentration for half-maximal inhibition (IC50) lay in the range of 1000 to 10000 nM.
As for `CNc1nc(-c2cccnc2)nc2ccc(-c3cccc(F)c3)c(F)c12` [Compound 223], the IC50 was 1000 to 10000 nM.
For the molecule `Fc1ccc(-c2ccc3nc(-c4cccnc4)nc(N4CC(n5cccn5)C4)c3c2)c(F)c1` [Compound 420], the half-maximal inhibitory concentration (IC50) is above 10000 nM.
On to `CNc1nc(-c2cccnc2)nc2ccc(-c3cccc(-c4nccs4)c3)cc12` [Compound 473], for which the half-maximal inhibitory concentration (IC50) is below 1000 nM.
Consider `CCOc1ccc2nc(-c3ccnnc3)nc(Nc3ccccc3C(N)=O)c2c1` [Compound 71], for which the IC50 lay within 1000 to 10000 nM.
As to `CCOc1ccc2nc(-c3cccnc3)nc(Nc3cncc(Cl)c3)c2c1` [Compound 69], the IC50 is below 1000 nM.
Take `Fc1cccc(-c2ccc3nc(-c4cccnc4)nc(NCCc4ccccn4)c3c2)c1` [Compound 336]: the IC50 was in the range of 1000 to 10000 nM.
The result for `CNc1nc(-c2cccnc2)nc2ccc(-c3cc(Cl)ccc3F)cc12` [Compound 240] reads 1000 to 10000 nM; that for `CNc1nc(-c2cccnc2)nc2c(F)cc(-c3ccccc3C#N)cc12` [Compound 567], below 1000 nM.
The result for `CNc1nc(-c2cnccn2)nc2cc(-c3ccccc3F)ccc12` [Compound 391] reads 1000 to 10000 nM; that for `CNc1nc(-c2cccnc2)nc2c(F)cc(-c3ccccc3OC)cc12` [Compound 566], above 10000 nM.
Regarding `Cc1c(-c2ccc(C#N)cc2)ccc2c(N(C)C)nc(-c3cccnc3)nc12` [Compound 291], the IC50 fell in the range of 1000 to 10000 nM.
For `CNc1nc(-c2cccnc2)nc2ccc(-c3ccc4[nH]c(=O)[nH]c4c3)cc12` [Compound 168], the IC50 was below 1000 nM.
The result for `c1ccc(CCNc2nc(-c3cccnc3)nc3ccc(-c4cc5ccccc5o4)cc23)nc1` [Compound 345] reads 1000 to 10000 nM.
With `CNc1nc(-c2cccnc2)nc2c(-c3cccc(F)c3)cccc12` [Compound 274], the half-inhibitory concentration (IC50) was in the range of 1000 to 10000 nM.
With `CNc1nc(-c2cccnc2)nc2c(C)c(-c3ccc4c(cnn4C)c3)ccc12` [Compound 298], the IC50 was below 1000 nM.
In the case of `Cc1ccc2c(c1)CCN2c1nc(-c2cccnc2)nc2ccc(-c3cc(F)cc(F)c3)cc12` [Compound 80], the IC50 is above 10000 nM.
`CNc1nc(-c2cccnc2)nc2c(F)c(-c3cc(F)cc(F)c3)ccc12` [Compound 516]: the IC50 is below 1000 nM.
The result for `CNc1nc(-c2cnccn2)nc2ccc(-c3ccc(F)cc3F)c(F)c12` [Compound 976] reads 1000 to 10000 nM; that for `CNc1nc(-c2cccnc2)nc2c(F)c(-c3cccc4sccc34)ccc12` [Compound 538], 1000 to 10000 nM.
The result for `CNc1nc(-c2cccnc2)nc2cc(F)c(-c3cccc(OC)c3)cc12` [Compound 590] reads 1000 to 10000 nM; that for `CNc1nc(-c2cnccn2)nc2cc(-c3ccc(F)cc3)ccc12` [Compound 393], 1000 to 10000 nM; that for `CC(Nc1nc(-c2cccnc2)nc2ccc(-c3ccccc3F)cc12)c1ccccn1` (centres unmarked) [Compound 366], 1000 to 10000 nM.
As to `CNc1nc(-c2cccnc2)nc2cc(-c3ccc(F)cc3F)c(F)cc12` [Compound 551], the half-inhibitory concentration (IC50) lay within 1000 to 10000 nM.
With `CNc1nc(-c2cccnc2)nc2c(Cl)cc(-c3ccc(F)cc3F)cc12` [Compound 244], the half-maximal inhibitory concentration (IC50) lay within 1000 to 10000 nM.
The result for `CNc1nc(-c2cccnc2)nc2c(C)c(-c3cc(F)cc(F)c3F)ccc12` [Compound 288] reads 1000 to 10000 nM; that for `CN(C)c1nc(-c2cccnc2)nc2cc(-c3cc(F)c(F)c(F)c3)ccc12` [Compound 313], 1000 to 10000 nM.
The result for `Clc1ccc2c(c1)CCN2c1nc(-c2cccnc2)nc2cc(-c3ccccc3Cl)ccc12` [Compound 111] reads above 10000 nM.
Turning to `Fc1ccc(F)c(-c2ccc3c(N4CCc5cc(Cl)ccc54)nc(-c4cccnc4)nc3c2)c1` [Compound 109], the half-maximal inhibitory concentration (IC50) lay in the range of 1000 to 10000 nM.
